Measurements as given in ChEMBL document CHEMBL3259638, “Preliminary investigations into triazole derived androgen receptor antagonists” (Bioorg Med Chem, 2014).

Assays:
PC-3 = assay: Cytotoxicity against human PC3 cells assessed growth inhibition; format: functional, cell-based
LNCaP = assay: Cytotoxicity against human LNCAP cells; format: cell-based

Structure (SMILES) | IC50 (PC-3) | Activity (LNCaP)
CC(C)(O)c1cn(-c2ccc(Cl)c(C(F)(F)F)c2)nn1 | 69 µM | 
CC(C)(O)c1cn(-c2ccc(C#N)c(C(F)(F)F)c2)nn1 |  | Toxic
CC(C)(O)c1cn(-c2ccc([N+](=O)[O-])c(C(F)(F)F)c2)nn1 | 63 µM | 
CC(C)(O)c1cn(-c2cc(C(F)(F)F)cc(C(F)(F)F)c2)nn1 | 42 µM | 
